The results in this text go back to paper PMC12217481, “Structure and mechanism of taniborbactam inhibition of the cefepime-hydrolyzing, partial R2-loop deletion Pseudomonas-derived cephalosporinase variant PDC-88” (Antimicrobial Agents and Chemotherapy, 2025).

The subject of assay [1] is E. coli ATCC 35218. Description: Broth microdilution MIC, CLSI quality control strain. The class given is cell-based. To be noted: Escherichia coli, ATCC35218, read-out: MIC TOL TZB. The protocol: (§1) Modal broth microdilution MICs (or median broth microdilution MICs where appropriate) were determined in accordance with Clinical and Laboratory Standards Institute (CLSI) M07 guidelines ([43]). Isogenic E. coli DH10B cells expressing the abovementioned plasmid-encoded PDC constructs were used. […] CLSI quality control strains Escherichia coli NCTC 13353, E. coli ATCC 35218, and Klebsiella pneumoniae ATCC 700603 were used during testing ([24]).
Background: In broth dilution the organism is exposed to a series of concentrations in liquid medium.

Assay [2] deals with T1, PDC-88 (Pseudomonas aeruginosa, UniProt P24735, DEL316-317/G27D/G391A/T105A/V205L/V356I).
T1 construct: NdeI 5′-[…]-3ʹ and BamHI 5ʹ-[…]-3ʹ; His tag removed) (N); made in house; host or cells: E. coli BL21-CodonPlus (DE3)-RP, pET24a(+)
Description: Timed ESI-MS of acyl-enzyme formation, PDC-88. The class given is biochemical. The note with it: timed ESI-MS, 1 to 30 min (ATM to 60 min). The protocol:
(§2) Timed ESI-MS experiments allow tracking of the reaction over time and determination of product modification, enabling the elucidation of mechanistic detail. Time courses were collected for both PDC-3 and PDC-88 with FEP (Fig. 4), CAZ (Fig. S1), TOL (Fig. S2), and ATM (Fig. S3). Substrate modification (here, loss of the R2 group) was determined based on differences between masses of apo and acyl-enzyme peaks (Fig. S4). […] Based on the differences in mass between the apo enzyme peaks, the acyl-enzyme peaks, and the molecular masses of each substrate, the mass of the adducts was determined and used to predict any portion of the substrate molecule that might be lost during the reaction (Fig. S4). As expected ([26][–][28]), all three cephalosporin antibiotics (FEP, CAZ, and TOL) lost their R2 groups during the reaction, while ATM (the sole monobactam) maintained its initial mass.
(§3) Five micrograms of PDC-3 or PDC-88 was incubated at the indicated molar ratio (1:2 to 1:100 PDC:β-lactam) in a total volume of 20 µL in 1× PBS at pH 7.4 at room temperature for the duration of the indicated time points. Reactions were quenched with the addition of 10 µL acetonitrile and added to 1 mL of 0.1% formic acid in water.
(§4) Data were collected using a Waters Synapt G2-Si quadrupole time-of-flight (Q-TOF) mass spectrometer and Waters Acquity UPLC BEH C18 1.7 µm column (2.1 by 100 mm). MassLynx V4.1 was used to deconvolute protein peaks. The tune settings for each sample were as follows: capillary voltage of 3.5 kV, sampling cone voltage of 35 V, source offset of 35 V, source temperature of 100°C, desolvation temperature of 500°C, cone gas flow rate of 100 L/h, desolvation gas flow rate of 800 L/h, and nebulizer bar at 6.0. Mobile phase A was 0.1% formic acid in water. Mobile phase B was 0.1% formic acid in acetonitrile. The mass accuracy of this system is ±5 Da.

In assay [3] the test system is E. coli DH10B/pTU627 (PDC-90). Description: Broth microdilution MIC, isogenic E. coli expressing PDC-90. The assay is classed as cell-based. The note with it: Escherichia coli. On the procedure: (§5) Genetic constructs used for minimum inhibitory concentration (MIC) testing were designed by Venatorx Pharmaceuticals and codon-optimized for use in E. coli and synthesized by Twist Bioscience as described previously ([9]). […] DH10B cells expressing an empty pET24a(+) vector (Novagen) were also grown, and the plasmid purified. Both pCR4-TOPO-PDC-88 and empty pET24a(+) were cut with BamHI and NdeI, the digests run on low-melting point agarose gels, and the bands of interest excised and ligated to yield a PDC-88 expressing pET24a(+) construct with the His tag removed. The PDC-3 expression construct was created in a similar manner but starting with a previously described pBC SK(−) vector ([42]). The final plasmids were grown in E. coli DH10B cells and purified.
as §1

Assay [4] deals with E. coli DH10B/pTU501 (vector). Put plainly: Broth microdilution MIC, isogenic E. coli empty vector control. The class given is cell-based. To be noted: Escherichia coli. The protocol:
as §5, §1

Assay [5] has as its system E. coli DH10B/pTU628 (PDC-91). Put plainly: Broth microdilution MIC, isogenic E. coli expressing PDC-91. The class given is cell-based. To be noted: Escherichia coli. The protocol: as §5, §1
Assay [6] relates to E. coli DH10B/pTU606 (PDC-1). Description: Broth microdilution MIC, isogenic E. coli expressing PDC-1. The class given is cell-based. To be noted: Escherichia coli. The protocol:
as §5, §1

Assay [7] addresses T2, PDC-3 (Pseudomonas aeruginosa, UniProt P24735, T105A).
T2 construct: The PDC-3 expression construct was created in a similar manner but starting with a previously described pBC SK(−) vector; made in house; host or cells: E. coli BL21-CodonPlus (DE3)-RP, pET24a(+)
Put plainly: Timed ESI-MS of acyl-enzyme formation, PDC-3. The class given is biochemical. To be noted: timed ESI-MS, 1 to 30 min (ATM to 60 min). The protocol:
as §2, §3, §4

Assay [8] relates to E. coli DH10B/pTU609 (PDC-3). Description: Broth microdilution MIC, isogenic E. coli expressing PDC-3. The class given is cell-based. The note with it: Escherichia coli. On the procedure:
as §5, §1

For assay [9], the system named is PDC-88. Description: Spectrophotometric β-lactam hydrolysis (progress curves, steady-state kinetics) by PDC-88. The assay is classed as biochemical, Pseudomonas aeruginosa. The note with it: over 900 s. On the procedure: In order to determine the impact of the PDC-88 variant on hydrolysis, we determined hydrolysis progress curves for PDC-3, PDC-88, and a strongly hydrolyzing comparator (NDM-1 or PER-2) for cefepime (FEP, Fig. 3A), ceftazidime (CAZ, Fig. 3B), ceftolozane (TOL, Fig. 3C), and aztreonam (ATM, Fig. 3D).
β-Lactamase kinetic and inhibitor constants were determined using an Agilent 8453 UV-Visible Spectrophotometer to record progress curves and determine initial rates and other kinetic parameters as appropriate. Reactions were carried out in 1× phosphate-buffered saline (PBS) (pH 7.4) at room temperature in a 0.2 cm path-length quartz cuvette (Hellma Analytics). Reads were taken every 10 s to minimize UV-mediated background hydrolysis.
The extinction coefficients used were: nitrocefin, Δε482 = 17,400 M^−1 cm^−1, and cefepime, Δε260 = −10,000 M^−1 cm^−1.
The kinetic constants KM and Vmax were determined using a nonlinear least-squares regression of the data to the Henri-Michaelis-Menten equation (equation 1) in Origin Version 2020b (OriginLab, Northampton, MA), where v is the velocity of the reaction; Vmax is the theoretical maximum velocity; KM is the Michaelis constant; and [S] is the substrate concentration: […]

In assay [10] the test system is E. coli DH10B/pTU625 (PDC-88). Put plainly: Broth microdilution MIC, isogenic E. coli expressing PDC-88. The assay is classed as cell-based, Escherichia coli. To be noted: Escherichia coli. On the procedure: as §5, §1
Assay [11] deals with E. coli DH10B/pTU629 (PDC-92). Put plainly: Broth microdilution MIC, isogenic E. coli expressing PDC-92. The assay is classed as cell-based. The note with it: Escherichia coli. On the procedure: as §5, §1
Assay [12] deals with E. coli DH10B/pTU626 (PDC-89). Put plainly: Broth microdilution MIC, isogenic E. coli expressing PDC-89. The class given is cell-based. The note with it: Escherichia coli. The protocol:
as §5, §1

Assay [13] addresses T1, PDC-88. The assay is classed as binding. The protocol: Circular dichroism (CD) melting curve experiments were conducted using a J-815 spectropolarimeter (Jasco) and a Peltier effect temperature controller. Suprasil quartz cuvettes with a 0.1 cm path length (Hellma Analytics) were used in all experiments. […] Equilibrium constants were calculated, and the melting temperature, Tm, was calculated from equilibrium denaturation data as previously described ([28]).

In assay [14] the target is T2, PDC-3. Put plainly: Thermal denaturation by circular dichroism, PDC-3. The class given is binding. On the procedure:
Competitive enzyme inhibitors can increase enzyme thermal stability as a result of binding to the active site.
Circular dichroism (CD) melting curve experiments were conducted using a J-815 spectropolarimeter (Jasco) and a Peltier effect temperature controller. Suprasil quartz cuvettes with a 0.1 cm path length (Hellma Analytics) were used in all experiments. […] Two-state behavior was observed, as indicated by identical curves at each wavelength. Equilibrium constants were calculated, and the melting temperature, Tm, was calculated from equilibrium denaturation data as previously described ([28]).

Assay [15] deals with isogenic E. coli strains expressing PDC R2-loop deletion variants (PDC-88 to PDC-92). Put plainly: MIC changes across the five isogenic E. coli R2-loop deletion strains. The class given is cell-based, Escherichia coli. To be noted: R2-loop deletion variant strains. On the procedure:
as §1

The term MIC denotes the least concentration at which growth counts as inhibited.

Structures are written as SMILES. Values after ≈ are worked out from the molar mass of the structure shown. Like-named read-outs stand apart in the source and are kept apart here.

For `Cn1c(N)c(NC(=O)NCCN)c[n+]1CC1=C(C(=O)O)N2C(=O)[C@@H](NC(=O)/C(=N\OC(C)(C)C(=O)[O-])c3nsc(N)n3)[C@H]2SC1` [TOL, ceftolozane], the MIC in [1] is 0.25 mg/L (≈ 0.375 µM); in assay [3] (read-out: MIC TOL TZB), 16 mg/L (≈ 24 µM); in assay [3] (E. coli DH10B/pTU627 (PDC-90), read-out: MIC TOL Alone) it was 16 mg/L (≈ 24 µM); in assay [4] (read-out: MIC TOL Alone) it was 0.5 mg/L (≈ 0.75 µM); in assay [4] (read-out: MIC TOL TZB) it was 0.5 mg/L (≈ 0.75 µM); in assay [5] (read-out: MIC TOL TZB) it was 16 mg/L (≈ 24 µM). Besides, the MIC in assay [5] (E. coli DH10B/pTU628 (PDC-91), read-out: MIC TOL Alone) came out at 16 mg/L (≈ 24 µM); in assay [6] (read-out: MIC TOL TZB), 4 mg/L (≈ 6 µM); in [6] (E. coli DH10B/pTU606 (PDC-1), read-out: MIC TOL Alone) it was 4 mg/L (≈ 6 µM); in assay [8] (read-out: MIC TOL TZB), 4 mg/L (≈ 6 µM); in assay [8] (E. coli DH10B/pTU609 (PDC-3), read-out: MIC TOL Alone) it was 4 mg/L (≈ 6 µM); in assay [10] (read-out: MIC TOL TZB), 8 mg/L (≈ 12 µM). The MIC turned out to be 16 mg/L (≈ 24 µM) in assay [10] (E. coli DH10B/pTU625 (PDC-88), read-out: MIC TOL Alone); 8 mg/L (≈ 12 µM) in assay [11] (read-out: MIC TOL TZB); 16 mg/L (≈ 24 µM) in [11] (E. coli DH10B/pTU629 (PDC-92), read-out: MIC TOL Alone); 8 mg/L (≈ 12 µM) in assay [12] (read-out: MIC TOL TZB); 16 mg/L (≈ 24 µM) in assay [12] (E. coli DH10B/pTU626 (PDC-89), read-out: MIC TOL Alone). In addition, the “acyl-enzyme complex formation and deacylation” value in assay [2] was “formed an acyl-enzyme complex that deacylated at a moderate rate”; in [7] it was “did not form a detectable acyl-enzyme complex”. Moreover, the “difference between hydrolysis progress curves of PDC-3 and PDC-88” value in [9] is listed as “no appreciable difference”.

In the case of `C[C@]1(Cn2ccnn2)[C@H](C(=O)O)N2C(=O)C[C@H]2S1(=O)=O` [TZB, tazobactam], the “increase of Tm upon addition of inhibitor” value in assay [13] (PDC-88) and in assay [14] (PDC-3) was 1 °C throughout. Besides, the Tm is 54 °C in assay [13] (PDC-88 with inhibitor, circular dichroism, PDC-88 alone 53°C) and 53 °C in assay [14] (PDC-3 with inhibitor, circular dichroism, PDC-3 alone 52°C). Moreover, in [15] (inhibitor at constant 4 µg/mL with FEP), the “decrease of FEP MIC of variants by inhibitor” value is given as “two- to fourfold”. Besides, in assay [15] (inhibitor at constant 4 µg/mL), the “restoration of FEP activity / susceptibility by inhibitor” value is on record as “failed to restore susceptibility for any of the variants”.
